Measured values: US11414377B2, “Modulator of metabotropic and ionotropic transmembrane receptors and use thereof” (IBD THERAPEUTICS LLC, priority 2018, dated 2022)

Experiments:
[1] = tested on: female balb/c mice; assay: Oxazolone-induced inflammatory bowel disease model; assay type: in vivo; conditions: scored at 72 hours, control 2.00 ± 0.21
Protocol: The study of the activity of Compound I on the oxazolone-induced inflammatory bowel disease model (ulcerative Colitis and Crohn's disease model) was carried out by means of a standard procedure (Heller F., Fuss I. J., Nieuwenhuis E. E., Blumberg R. S., Strober W. Oxazolone colitis, a Th2 colitis model resembling ulcerative colitis, is mediated by IL-13-producing NK-T cells//Immunity. 2002. P. 629-638).
The study was carried out on female balb/c mice. A 3.5 F catheter was introduced into the large intestine to a depth of 3-4 cm. Then, 150 μl of 1% oxazolone solution in 50% ethanol was slowly introduced into the colon lumen, the catheter was slowly removed and the mouse was kept in a vertical position (upside down) for 60 seconds to avoid the introduced solution flowing-out. Experimental animals were returned to the cages and the animal was kept in the warm. Compound I was administered intragastrically, three times: 1 hour, 25 hours and 49 hours after the rectal administration of oxazolone. 72 hours later after the rectal administration of oxazolone, the macroscopic assessment of intestinal wall damage is carried out with the help of score scale: 0 points—no lesions, 1 point—hyperemia, no ulcers, 2 points—hyperemia and thickening of the intestinal wall, no ulcers, 3 points—one ulcer without thickening of the intestine wall, 4 points—2 or more of the site of ulceration or inflammation, 5 points—2 or more severe sites of ulcerations and inflammation, or one site of ulceration/inflammation affecting >1 cm in length of the intestine, 6-10 points—the lesion affects >2 cm in length of the intestine, the score increases by 1 point per each 1 cm that is damaged.
For all data, descriptive statistics is applied: the arithmetic mean (M) and the standard error of the mean (m) are counted up. The normality of distribution of the values obtained in the course of the experiment was checked with the aid of the Shapiro-Wilk test. […] Distinctions were determined at 5% at a level of confidence.

[2] = tested on: guinea pigs of Agouti line; assay: Citrate cough model in guinea pigs, inhalation administration; assay type: in vivo; conditions: 0.25 mg/kg by inhalation 15 minutes prior to citric acid
[3] = Solubility remark in acute toxicity dosing; assay type: physicochemical; conditions: solvent 0.1% Tween-80 solution in water; 2000 mg/kg dose given in 2 administrations
Protocol: Compound I was administered to rats and mice intragastrically at a dose of 5000 mg/kg, intraperitoneally—at a dose of 2000 mg/kg. Control groups (female and male objects) were received a solvent (0.1% Tween-80 solution in water).

[4] = target: recombinant human delta opioid receptor (Homo sapiens, UniProt P41143); assay: Delta-opioid receptor radioligand displacement ([3H]DADLE); assay type: binding
[5] = tested on: male balb/c mice; assay: Motility of the gastrointestinal tract in vivo (activated carbon transit); conditions: for The time of ejection of activated carbon: intact 73.8 ± 3.7
Protocol: The effect of Compound I on the motility of the GIT was studied by a standard procedure (Li Y. Y., Li Y. N., Ni J. B., Chen C. J., Lv S., Chai S. Y., Wu R. H., Yüce B., Storr M. Involvement of cannabinoid-1 and cannabinoid-2 receptors in septic ileus//Neurogastroenterol Motil. 2010. V. 22. P. 350-388). The study was carried out on male balb/c mice, the individual weight of which deviates from the mean value within the sex of no more than ±20%. The animals were given the intragastric administration of a solution of activated carbon (50 mg/ml, in 10 ml/kg) and the rate (in minutes) of the movement of the activated carbon on the intestine of animals was evaluated. Compounds I was administered once intragastrically 1 hour prior to administration of activated carbon. As the comparative preparations, hyoscin butyl bromide (Buscopan) at a dose of 3 mg/kg, trimebutine (Trimedat) at a dose of 33 mg/kg, mebeverine (Duspatalin) at a dose of 30 mg/kg were used. The obtained data were checked using the Grubb's test for the presence of the largest or smallest abnormal observation (ejection) in the sample. Values determined “to be eliminated” in this test were not used for further assay. For all data, descriptive statistics was used: a mean value (M) and standard error of the mean value (m) were counted up. The normality of distribution of the values obtained in the course of the experiment was checked with the aid of the Kolmogorov-Smirnov test. In the case of normal distribution, Student's t-test (t-test) was used to evaluate the inter-group distinctions. In the case of the distribution that is other than the normal one for the comparison of several groups, the Kruskall-Wallis test (with Dann's post hoc test) was used. Distinctions were determined at 5% at a level of confidence.

[6] = tested on: rats; assay: Stress-induced defecation model in rats; assay type: in vivo; conditions: 40 minutes restraint, control 2.65 ± 0.35, intact 0.24 ± 0.05
Protocol: The study of the activity of Compound I in the stress-induced defecation model was carried out by a standard procedure (Taguchi R., Shikata K., Furuya Y, Hirakawa T., Ino M., Shin K., Shibata H. Selective corticotropin-releasing factor 1 receptor antagonist E2508 reduces restraint stress-induced defecation and visceral pain in rat models//Psychoneuroendocrinology. 2017. P. 110-115).
Rats were adapted to a room in which the experiment was conducted for 24 hours. The study was carried out on satisfied rats. Compound I was administered once, intragastrically. After 1 hour, the rat was placed in the cloth so that the front paws were pressed to the body. In such a form, the rat was placed into the individual cage on the gating and was left for 40 minutes. Summarily the whole of excrement released during the observation period of 40 minutes then was weighed.
For all data, descriptive statistics is applied: the arithmetic mean (M) and the standard error of the mean (m) are counted up. The normality of distribution of the values obtained in the course of the experiment was checked with the aid of the Shapiro-Wilk test. In the case of normal distribution, 1-way ANOVA (with […] post hoc test) was used to evaluate the inter-group distinctions. In the case of the distribution that is other than normal one, the […] was used for the comparison of several groups.

[7] = Pharmacokinetics and tissue bioavailability after oral administration to rats; assay type: in vivo; conditions: oral 10 mg/kg (therapeutic dose)
Protocol: To confirm low systemic availability of Compound 1, the study of pharmacokinetics and bioavailability of Compound 1 was carried out after the oral administration to rats in a dose of 10 mg/kg. The study was carried out on 18 male Vistar rats. Blood sampling in the animals was carried out at given time points for 24 h after the administration of the preparation. The content of Compound 1 in plasma samples was analyzed by HPLC-MS/MS, the […] was 1 ng/ml.

Sequence of recombinant human delta opioid receptor (P41143 whole entry): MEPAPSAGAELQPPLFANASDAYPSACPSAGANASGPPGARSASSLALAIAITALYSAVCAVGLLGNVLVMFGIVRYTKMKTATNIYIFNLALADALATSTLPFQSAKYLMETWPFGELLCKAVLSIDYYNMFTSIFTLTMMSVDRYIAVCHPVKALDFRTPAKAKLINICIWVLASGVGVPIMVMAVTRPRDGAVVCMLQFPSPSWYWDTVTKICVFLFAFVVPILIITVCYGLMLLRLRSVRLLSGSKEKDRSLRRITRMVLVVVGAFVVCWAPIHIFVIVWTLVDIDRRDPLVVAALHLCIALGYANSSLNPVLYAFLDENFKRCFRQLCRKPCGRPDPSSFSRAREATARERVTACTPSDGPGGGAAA

O=C(Cc1ccc(O)cc1)N[C@@H](Cc1ccccc1)C(=O)NCCc1ccccc1 [Compound I, 2-phenylethylamide N-(p-hydroxyphenylacetyl)phenylalanine]
The degree of colon wall damage ([1]; 10 mg/kg, 1, 25 and 49 hours after oxazolone): 2.20 ± 0.96 points | The degree of colon wall damage ([1]; 20 mg/kg intragastrically 1, 25 and 49 hours after oxazolone): 0.00 ± 0.00& points | Suppression of cough (% from the control of pathology) in the chamber [2]: 39.1% | A number of cough attacks during the inhalation for 10 minutes ([2]; control 48.8 ± 4): 29.7 ± 2.7*& | Solubility [3]: poor | IC50 [4]: 64 µM | The time of ejection of activated carbon ([5]; 1.5 mg/kg once intragastrically 1 hour prior to activated carbon): 108.7 ± 9.28 min | The time of ejection of activated carbon ([5]; 3 mg/kg once intragastrically 1 hour prior to activated carbon): 130.4 ± 11.42 min | The time of ejection of activated carbon ([5]; 7.5 mg/kg once intragastrically 1 hour prior to activated carbon): 123.4 ± 11.43 min | The time of ejection of activated carbon ([5]; 15 mg/kg once intragastrically 1 hour prior to activated carbon): 147.6 ± 8.94 min | Increase of the time of activated carbon evacuation ([5]; 1.5-15 mg/kg intragastrically, versus intact): 1.5-2 times | Weight of excrement ([6]; 0.3 mg/kg once intragastrically): 2.35 ± 0.35 g | Weight of excrement ([6]; 1 mg/kg once intragastrically): 1.43 ± 0.12 g | Weight of excrement ([6]; 3 mg/kg once intragastrically): 1.00 ± 0.06& g | Penetration into the brain [7]: does not penetrate into the brain of rats
